The target in assay [1] is KASI ketoacyl-ACP synthase (e.g., fabB in E. coli) (Escherichia coli, UniProt P0A953). To be noted: KX3_0001, fed-batch medium, 24 h.
Procedure: Cultures were started from freezer stocks by standard practice (Sambrook and Russell, 2001) into 50 mL of LB media plus 100 μg/mL ampicillin and grown to stationary phase overnight at 37° C. with rotation at 225 rpm. Five ml of this culture were transferred to 100 ml of fed-batch or AM2 media plus 40 g/L glucose, 100 kg/ml ampicillin, 1 mM IPTG in triplicate 250-ml baffled flasks, and incubated at 37° C., 225 rpm. […] Dry cell weight (DCW) is calculated as 0.33 times the measured OD600 value, based on baseline DCW to OD600 determinations. All data are the average of triplicate cultures.
Assay [2] deals with fatty acid synthase system. The assay is classed as cell-based, E. coli.

Structures are written as SMILES.

Sequence of KASI ketoacyl-ACP synthase (e.g., fabB in E. coli) (P0A953 whole entry): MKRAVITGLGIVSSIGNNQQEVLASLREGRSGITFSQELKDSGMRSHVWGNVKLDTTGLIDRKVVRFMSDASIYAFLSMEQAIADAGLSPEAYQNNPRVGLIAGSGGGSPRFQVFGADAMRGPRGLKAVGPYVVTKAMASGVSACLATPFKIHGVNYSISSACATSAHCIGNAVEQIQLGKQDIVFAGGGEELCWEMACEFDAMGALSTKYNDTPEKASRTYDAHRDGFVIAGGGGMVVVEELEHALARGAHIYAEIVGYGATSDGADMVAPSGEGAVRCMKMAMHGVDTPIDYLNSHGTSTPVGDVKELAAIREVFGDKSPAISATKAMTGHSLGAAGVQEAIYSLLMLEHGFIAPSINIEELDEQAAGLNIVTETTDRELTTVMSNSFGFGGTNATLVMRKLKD

Regarding `C/C=C/C/C=C/CCC(=O)[C@H]1O[C@H]1C(N)=O` [cerulenin], the “increase in specific productivity relative to the results without cerulenin” value in assay [1] is 31 fold; in assay [2] (BX3_0206, SM3 medium, 24 hours), “approximately 40 fold”. This compound also returned a 3HP in assay [2] (strain BX3_0194, SM3 medium, cerulenin, 4 hr) of 0.003 gIL.

The record behind these values is patent publication US20180312886A1, “MICROBIAL PRODUCTION OF CHEMICAL PRODUCTS AND RELATED COMPOSITIONS, METHODS AND SYSTEMS” (CARGILL INCORPORATED, priority 2014, published 2018).
